Experiments:
Test in all cases: Large panel kinase profiling
Assay type in all cases: biochemical
Settings in all cases: 1 μM test article, 1 mM ATP
CDK5/P25 = target: T1, CDK5/P25 (Homo sapiens, UniProt Q00535)
T1 construct: AssayQuant Technologies, Inc. (ran the panel)
Outline: (§1)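 Single-point profiling at 1 μM test article used 1 mM ATP. Phosphorylation was tracked by sensor fluorescence increase over time at 30° C., with readings each minute at excitation 360 nm and emission 485 nm.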

CSF1R/FMS = target: T2, CSF1R/FMS (Homo sapiens, UniProt P07333)
T2 construct: AssayQuant Technologies, Inc. (service laboratory)
T2 sequence (P07333 20-972): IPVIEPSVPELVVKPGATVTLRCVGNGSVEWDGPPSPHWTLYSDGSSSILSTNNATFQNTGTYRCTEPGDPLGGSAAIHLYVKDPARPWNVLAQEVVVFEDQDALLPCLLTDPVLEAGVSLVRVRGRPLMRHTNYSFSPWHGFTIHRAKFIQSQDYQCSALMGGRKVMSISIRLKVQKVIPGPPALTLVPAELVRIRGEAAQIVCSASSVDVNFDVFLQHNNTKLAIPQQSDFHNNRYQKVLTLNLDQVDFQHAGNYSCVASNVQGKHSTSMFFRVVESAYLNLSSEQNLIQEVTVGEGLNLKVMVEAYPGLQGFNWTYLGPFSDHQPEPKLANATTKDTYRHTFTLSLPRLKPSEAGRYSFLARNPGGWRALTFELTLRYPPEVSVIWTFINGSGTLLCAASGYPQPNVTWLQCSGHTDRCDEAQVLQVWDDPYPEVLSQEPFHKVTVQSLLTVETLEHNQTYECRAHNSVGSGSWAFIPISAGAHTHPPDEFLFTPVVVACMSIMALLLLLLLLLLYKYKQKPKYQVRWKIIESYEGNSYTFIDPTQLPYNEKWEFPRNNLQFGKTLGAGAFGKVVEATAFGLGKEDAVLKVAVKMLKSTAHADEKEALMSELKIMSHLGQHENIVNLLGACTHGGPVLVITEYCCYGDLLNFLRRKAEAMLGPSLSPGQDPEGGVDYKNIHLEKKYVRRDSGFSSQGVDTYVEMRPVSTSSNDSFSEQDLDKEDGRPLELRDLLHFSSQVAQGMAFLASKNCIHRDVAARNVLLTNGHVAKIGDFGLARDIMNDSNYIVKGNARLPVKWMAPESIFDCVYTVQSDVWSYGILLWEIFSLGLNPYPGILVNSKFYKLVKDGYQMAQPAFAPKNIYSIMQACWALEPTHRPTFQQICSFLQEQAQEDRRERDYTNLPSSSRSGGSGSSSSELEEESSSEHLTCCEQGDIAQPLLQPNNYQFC
Outline: as §1

GRK2 = target: T3, GRK2 (Homo sapiens, UniProt P25098)
T3 construct: AssayQuant Technologies, Inc. (service provider)
T3 sequence (P25098 1-689): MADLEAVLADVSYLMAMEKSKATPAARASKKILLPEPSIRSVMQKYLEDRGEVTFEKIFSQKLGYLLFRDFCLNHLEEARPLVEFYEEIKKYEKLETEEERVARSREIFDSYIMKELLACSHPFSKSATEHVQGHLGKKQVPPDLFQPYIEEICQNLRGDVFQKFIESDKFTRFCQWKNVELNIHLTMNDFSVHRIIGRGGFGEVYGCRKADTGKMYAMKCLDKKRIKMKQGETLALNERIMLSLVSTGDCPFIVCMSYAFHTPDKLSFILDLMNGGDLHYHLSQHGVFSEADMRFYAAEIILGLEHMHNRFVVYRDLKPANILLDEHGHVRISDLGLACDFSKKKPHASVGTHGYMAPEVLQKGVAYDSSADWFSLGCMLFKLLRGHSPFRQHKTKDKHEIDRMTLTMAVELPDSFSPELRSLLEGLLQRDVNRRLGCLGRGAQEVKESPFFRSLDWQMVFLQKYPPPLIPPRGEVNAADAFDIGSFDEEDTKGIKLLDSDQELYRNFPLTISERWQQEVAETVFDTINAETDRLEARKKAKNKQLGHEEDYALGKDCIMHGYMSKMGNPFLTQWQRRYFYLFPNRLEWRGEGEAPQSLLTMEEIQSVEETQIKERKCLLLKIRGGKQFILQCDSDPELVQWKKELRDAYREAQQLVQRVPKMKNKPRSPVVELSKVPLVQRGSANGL
Outline: as §1

PASK = PASK (Homo sapiens, UniProt Q96RG2)
Chain of PASK (Q96RG2 whole entry): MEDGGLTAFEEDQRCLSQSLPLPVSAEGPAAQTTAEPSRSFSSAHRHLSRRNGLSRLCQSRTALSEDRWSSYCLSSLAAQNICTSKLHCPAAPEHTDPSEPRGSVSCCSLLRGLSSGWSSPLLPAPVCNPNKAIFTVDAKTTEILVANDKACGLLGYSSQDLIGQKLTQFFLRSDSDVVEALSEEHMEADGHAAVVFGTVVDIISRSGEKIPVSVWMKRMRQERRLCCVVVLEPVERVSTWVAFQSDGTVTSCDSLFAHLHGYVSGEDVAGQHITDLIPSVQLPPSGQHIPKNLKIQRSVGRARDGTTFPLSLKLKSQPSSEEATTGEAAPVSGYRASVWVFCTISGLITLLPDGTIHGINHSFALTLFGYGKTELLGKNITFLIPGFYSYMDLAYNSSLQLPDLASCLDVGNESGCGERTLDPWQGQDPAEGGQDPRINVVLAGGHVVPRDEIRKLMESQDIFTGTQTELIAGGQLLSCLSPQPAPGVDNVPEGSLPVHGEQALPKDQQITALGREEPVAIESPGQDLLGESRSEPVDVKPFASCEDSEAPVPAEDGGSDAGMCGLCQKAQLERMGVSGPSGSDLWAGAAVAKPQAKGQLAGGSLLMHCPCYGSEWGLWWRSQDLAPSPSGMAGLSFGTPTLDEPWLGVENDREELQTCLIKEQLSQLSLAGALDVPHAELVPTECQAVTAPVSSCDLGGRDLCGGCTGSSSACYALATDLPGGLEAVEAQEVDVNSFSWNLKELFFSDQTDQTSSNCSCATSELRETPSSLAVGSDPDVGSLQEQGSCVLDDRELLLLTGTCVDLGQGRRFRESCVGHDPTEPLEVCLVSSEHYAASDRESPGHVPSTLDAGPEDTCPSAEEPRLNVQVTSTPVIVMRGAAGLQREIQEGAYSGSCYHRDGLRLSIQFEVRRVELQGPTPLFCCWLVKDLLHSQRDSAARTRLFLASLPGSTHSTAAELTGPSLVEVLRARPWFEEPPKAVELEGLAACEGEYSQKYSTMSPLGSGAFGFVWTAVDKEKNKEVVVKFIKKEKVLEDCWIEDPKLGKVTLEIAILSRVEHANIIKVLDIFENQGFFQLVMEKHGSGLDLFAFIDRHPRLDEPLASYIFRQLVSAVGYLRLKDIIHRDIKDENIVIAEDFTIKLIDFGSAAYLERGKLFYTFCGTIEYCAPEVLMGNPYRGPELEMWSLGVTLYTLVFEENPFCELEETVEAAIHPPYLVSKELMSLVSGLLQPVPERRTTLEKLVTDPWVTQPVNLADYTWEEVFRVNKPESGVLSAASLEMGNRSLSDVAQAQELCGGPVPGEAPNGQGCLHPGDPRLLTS
Outline: as §1

PRKDC/DNA-PK = PRKDC/DNA-PK (Homo sapiens, UniProt P78527)
Outline: as §1

SGK2 = target: T4, SGK2 (Homo sapiens, UniProt Q9HBY8)
T4 construct: AssayQuant Technologies, Inc. (contract assay)
T4 sequence (Q9HBY8 1-367): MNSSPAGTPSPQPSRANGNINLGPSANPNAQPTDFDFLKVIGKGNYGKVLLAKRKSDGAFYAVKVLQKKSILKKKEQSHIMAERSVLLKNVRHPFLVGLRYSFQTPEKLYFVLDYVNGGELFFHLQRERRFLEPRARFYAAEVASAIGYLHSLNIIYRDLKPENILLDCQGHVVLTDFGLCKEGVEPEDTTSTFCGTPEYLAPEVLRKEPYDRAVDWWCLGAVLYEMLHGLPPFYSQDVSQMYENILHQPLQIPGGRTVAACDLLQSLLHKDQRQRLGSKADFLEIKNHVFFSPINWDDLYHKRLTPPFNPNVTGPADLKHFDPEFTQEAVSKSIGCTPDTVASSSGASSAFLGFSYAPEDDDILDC
Outline: as §1

SLK = target: T5, SLK (Homo sapiens, UniProt Q9H2G2)
T5 construct: AssayQuant Technologies, Inc. (contract assay)
T5 sequence (Q9H2G2 whole entry): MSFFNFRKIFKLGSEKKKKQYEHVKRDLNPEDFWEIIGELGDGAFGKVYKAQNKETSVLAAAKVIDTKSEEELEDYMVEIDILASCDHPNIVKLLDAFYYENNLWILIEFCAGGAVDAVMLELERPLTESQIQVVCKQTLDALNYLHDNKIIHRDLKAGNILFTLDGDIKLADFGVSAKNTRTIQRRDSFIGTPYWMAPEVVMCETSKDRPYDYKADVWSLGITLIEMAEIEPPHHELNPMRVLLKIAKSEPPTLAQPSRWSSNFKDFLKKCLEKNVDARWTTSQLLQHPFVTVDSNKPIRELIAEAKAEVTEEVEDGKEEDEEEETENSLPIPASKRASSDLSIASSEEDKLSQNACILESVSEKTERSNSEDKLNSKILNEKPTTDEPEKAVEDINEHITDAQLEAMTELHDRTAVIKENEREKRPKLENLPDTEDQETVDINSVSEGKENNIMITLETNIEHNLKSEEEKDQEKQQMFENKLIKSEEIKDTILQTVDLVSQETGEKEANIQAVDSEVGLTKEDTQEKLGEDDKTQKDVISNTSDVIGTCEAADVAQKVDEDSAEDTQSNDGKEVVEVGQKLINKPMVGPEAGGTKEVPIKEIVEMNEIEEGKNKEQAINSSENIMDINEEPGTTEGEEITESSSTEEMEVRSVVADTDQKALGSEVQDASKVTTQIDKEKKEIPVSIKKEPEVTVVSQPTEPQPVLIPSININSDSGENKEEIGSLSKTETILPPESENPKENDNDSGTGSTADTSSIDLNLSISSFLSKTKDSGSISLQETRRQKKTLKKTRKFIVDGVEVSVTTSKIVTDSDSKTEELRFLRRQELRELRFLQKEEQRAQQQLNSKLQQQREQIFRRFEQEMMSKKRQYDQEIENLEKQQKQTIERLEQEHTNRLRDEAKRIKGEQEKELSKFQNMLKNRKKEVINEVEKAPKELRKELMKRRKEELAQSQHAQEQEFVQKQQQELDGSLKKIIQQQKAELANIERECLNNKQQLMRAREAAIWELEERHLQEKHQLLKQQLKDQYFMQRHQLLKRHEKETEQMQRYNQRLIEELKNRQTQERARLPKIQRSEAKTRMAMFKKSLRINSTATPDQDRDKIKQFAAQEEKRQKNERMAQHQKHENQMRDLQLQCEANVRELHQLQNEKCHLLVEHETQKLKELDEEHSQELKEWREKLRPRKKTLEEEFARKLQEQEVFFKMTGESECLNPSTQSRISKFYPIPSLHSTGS
Outline: as §1

ULK1 = target: T6, ULK1 (Homo sapiens, UniProt O75385)
T6 construct: AssayQuant Technologies, Inc. (contract laboratory that ran the panel)
T6 sequence (O75385 1-1050): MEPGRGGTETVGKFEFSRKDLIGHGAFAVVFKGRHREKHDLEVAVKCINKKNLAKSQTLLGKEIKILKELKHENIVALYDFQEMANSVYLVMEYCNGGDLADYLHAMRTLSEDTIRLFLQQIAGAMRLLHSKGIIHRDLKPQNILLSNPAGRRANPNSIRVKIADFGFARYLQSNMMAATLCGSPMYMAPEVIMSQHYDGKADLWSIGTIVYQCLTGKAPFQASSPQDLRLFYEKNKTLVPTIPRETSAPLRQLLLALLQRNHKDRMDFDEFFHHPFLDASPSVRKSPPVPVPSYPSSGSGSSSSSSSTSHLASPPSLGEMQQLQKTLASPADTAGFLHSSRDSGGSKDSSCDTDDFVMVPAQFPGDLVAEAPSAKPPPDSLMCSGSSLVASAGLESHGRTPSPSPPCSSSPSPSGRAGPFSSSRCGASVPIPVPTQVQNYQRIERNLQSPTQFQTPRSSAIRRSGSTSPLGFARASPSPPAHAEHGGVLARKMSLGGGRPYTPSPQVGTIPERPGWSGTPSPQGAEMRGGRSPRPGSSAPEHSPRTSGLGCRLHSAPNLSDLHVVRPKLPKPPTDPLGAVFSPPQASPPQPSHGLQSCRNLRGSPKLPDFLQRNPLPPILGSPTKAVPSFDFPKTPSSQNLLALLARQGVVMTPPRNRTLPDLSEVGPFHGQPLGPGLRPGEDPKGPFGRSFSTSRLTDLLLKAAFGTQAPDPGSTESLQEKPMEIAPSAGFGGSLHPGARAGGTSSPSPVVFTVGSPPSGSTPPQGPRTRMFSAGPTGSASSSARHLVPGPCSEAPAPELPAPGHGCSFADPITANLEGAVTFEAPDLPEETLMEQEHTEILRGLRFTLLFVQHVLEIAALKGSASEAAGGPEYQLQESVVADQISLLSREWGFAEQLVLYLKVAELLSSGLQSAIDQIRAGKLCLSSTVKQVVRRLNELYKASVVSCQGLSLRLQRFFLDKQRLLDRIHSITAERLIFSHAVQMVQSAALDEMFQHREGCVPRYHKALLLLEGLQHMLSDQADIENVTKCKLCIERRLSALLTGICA
Outline: as §1

T1 sequence (Q00535 whole entry, species assumed): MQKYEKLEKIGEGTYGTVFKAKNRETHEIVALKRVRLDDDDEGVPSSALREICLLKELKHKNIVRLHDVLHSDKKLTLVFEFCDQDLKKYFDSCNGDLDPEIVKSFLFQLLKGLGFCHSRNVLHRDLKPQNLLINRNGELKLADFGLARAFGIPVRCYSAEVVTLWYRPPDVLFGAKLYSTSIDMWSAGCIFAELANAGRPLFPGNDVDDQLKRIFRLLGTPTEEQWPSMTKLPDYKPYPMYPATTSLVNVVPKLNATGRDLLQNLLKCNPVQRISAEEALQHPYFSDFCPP
T1 sequence (Q15078 99-307 partner limits assumed, species assumed): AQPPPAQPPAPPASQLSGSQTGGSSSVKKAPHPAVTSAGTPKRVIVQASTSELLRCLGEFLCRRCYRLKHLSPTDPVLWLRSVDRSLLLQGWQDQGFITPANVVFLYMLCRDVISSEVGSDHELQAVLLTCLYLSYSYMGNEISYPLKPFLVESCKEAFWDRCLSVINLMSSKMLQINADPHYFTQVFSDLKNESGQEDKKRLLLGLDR

Row | Compound | inhibition at 1 µM (CDK5/P25) [%] | inhibition at 1 µM (CSF1R/FMS) [%] | inhibition at 1 µM (GRK2) [%] | inhibition at 1 µM (PASK) [%] | inhibition at 1 µM (PRKDC/DNA-PK) [%] | inhibition at 1 µM (SGK2) [%] | inhibition at 1 µM (SLK) [%] | inhibition at 1 µM (ULK1) [%]
1 | C=CC(=O)N1CCCC(c2c(F)cc(C(N)=O)c3[nH]c4c(c23)CCCCC4)C1 (single isomer, unassigned) [Compound 5-6] | -11.1 | 21.3 | -14.8 | 1.8 | -40.6 | -46.7 | -3.7 | -3.1
2 | C=CC(=O)N1CCC[C@@H](c2c(F)cc(C(N)=O)c3[nH]c4c(c23)CCC4)C1 [Compound 10-2, (S)-8-(1-acryloylpiperidin-3-yl)-7-fluoro-1,2,3,4-tetrahydrocyclo-penta[b]indole-5-carboxamide] | 1.6 | 20.2 | -1.6 | -8.5 | 14.6 | -34.9 | -48.3 | -6.1
3 | C=CC(=O)N1CCC[C@@H](c2c(F)cc(C(N)=O)c3[nH]c4c(c23)CC2(CC4)CC2)C1 [Compound 6-2, (S)-5-(1-acryloylpiperidin-3-yl)-6-fluoro-1,2,4,9-tetrahydrospiro[carbazole-3,1′-cyclopropane]-8-carboxamide] | -13 | 24.9 | -10.5 | -8 | 35 | -26.2 | 8.9 | -23.6

Source: patent US20220009920A1 (GB005, Inc., priority 2020, published 2022)
